# In patent publication US12186303B2, “Feed additive for cattle comprising n-acetyl-l-tryptophan as active ingredient” (CJ CHEILJEDANG CORPORATION, priority 2018, dated 2025):
# Tests used:
# Korean native steers [1] = experiment: Feed intake according to NALT feeding under cold stress conditions; format: in vivo, Korean native cattle; details: for Feed intake: 0.1% NALT
# Excerpt: After grouping the animals by statistical analysis of initial body weights, the animals were bred in 1.0×1.5 m^2 individual pens during the experiment period. The feed was offered based on an amount of dry matter of daily total mixed ration (TMR) per head. After 7 days of an adaptation period for N-acetyl-L-tryptophan (NALT), a mixture of 0.1% N-acetyl-L-tryptophan (NALT) and the total mixed ration was fed to individual animals every morning at 8 a.m. for 6 weeks, and water was available ad libitum. Total amounts of L-tryptophan ingested by the control and NALT-treated group by feeding NALT were 7.37 g/day/head and 16.26 g/day/head, respectively. The experiment was performed such that the NALT-treated group ingested 8.89 g/day/head more L-tryptophan than that of the control. Meanwhile, results of growth performance analysis (body weight and average feed intake) and genetic analysis of loin tissue were obtained by statistically comparing and analyzing significant differences between the control and the NALT-treated group, and results of hematological analysis were obtained via statistical comparison and analysis depending on NALT treatment, experiment period (days), and interaction (treatment×days). These numerical values were expressed as average values, and a significance test was performed at the 5% level using Student's t-test by using the JMP 5.0 software package (SAS Institute Inc., Cary, NC, USA). Feed intake of each sentinel animal was calculated by measuring a total amount of feed offered and an amount left over every day.
# Korean native steers [2] = experiment: Complete blood cell count (CBC) under heat stress conditions; format: in vivo, Korean native cattle; details: for GRA (0-2.4) / HCT (23-33) / HGB (8.0-15.0) / LYM (2.5-7.5) / MCH (14-18) / MCHC (30-36) / MCV (40-60) / MON (0-0.84) / MPV (4.5-7.6) / PCT (0.15-0.40) / PDW (56-80) / PLT (100-800) / RBC (5.0-10.0) / RDW (16-20) / WBC (4.0-12.0): 0.1% NALT
# Excerpt: After grouping the animals by statistical analysis of initial body weights, the animals were bred in 1.0×1.5 m^2 individual pens during the experiment period. The feed was offered based on an amount of dry matter of daily total mixed ration (TMR) per head. After 7 days of an adaptation period for N-acetyl-L-tryptophan (NALT), a mixture of 0.1% N-acetyl-L-tryptophan (NALT) and the total mixed ration was fed to individual animals every morning at 8 a.m. for 6 weeks, and water was available ad libitum. Total amounts of L-tryptophan ingested by the control and the experimental group (NALT-treated group) by feeding NALT were 6.0 g/day/head and 18.2 g/day/head, respectively. The experiment was performed such that the NALT-treated group ingested 12.2 g/day/head more L-tryptophan than the control.
# Meanwhile, results of growth performance analysis (body weight and average feed intake) and genetic analysis of loin tissue were obtained by statistically comparing and analyzing significant differences between the control and the NALT-treated group, and results of hematological analysis were obtained via statistical comparison and analysis depending on NALT treatment, experiment period (days), and interaction (treatment×days). These numerical values were expressed as average values, and a significance test was performed at the 5% level using Student's t-test by using a JMP 5.0 software package (SAS Institute Inc., Cary, NC, USA).
# Blood samples were collected from a jugular vein of each sentinel animal before offering the feed at the starting day of the experiment (week 0), the mid-point of the experiment (week 5), and the final day of the experiment (week 10) and stored in a vacutainer (Becton Dickinson, Franklin Lakes, NJ, USA). Complete blood cell count (CBC) was performed using whole blood using a VetScan HM2 (Abaxis, Union City, CA, USA), and hematological properties were identified using serum with a biochemical autoanalyzer (FUJI DRI-CHEM 7000, Fujifilm, Tokyo, Japan). In addition, total protein (TP), albumin (ALB), creatinine phosphokinase (CPK), and blood urea nitrogen (BUN), which are related to blood protein metabolism, were analyzed; triglycerides (TG) and non-esterified fatty acid (NEFA), which are related to energy metabolism, were analyzed; and sodium (Na), chlorine (CI), and potassium (K), which are blood electrolytes, were analyzed.
structure (smiles),measurement,setting,value
"CC(=O)N[C@@H](Cc1c[nH]c2ccccc12)C(=O)O [NALT, N-acetyl-L-tryptophan]",Feed intake,Korean native steers [1]; Days 0-6 (adaptation period),8.56 kg
same,Feed intake,Korean native steers [1]; Days 7-13,9.21 kg
same,Feed intake,Korean native steers [1]; Days 7-48 (entire experiment period),9.86 kg
same,Feed intake,Korean native steers [1]; Days 14-20,9.56 kg
same,Feed intake,Korean native steers [1]; Days 21-27,9.68 kg
same,Feed intake,Korean native steers [1]; Days 28-34,10.22 kg
same,Feed intake,Korean native steers [1]; Days 35-41,10.02 kg
same,Feed intake,Korean native steers [1]; Days 42-48,10.56 kg
same,Feed intake compared with the control,Korean native steers [1]; adaptation period (days 0-6),No statistically significant difference
same,Feed intake compared with the control,Korean native steers [1]; days 7-41,no statistically significant difference
same,Increase in average feed intake per head compared to the control,Korean native steers [1]; days 7-48,about 4.6%
same,Increase in feed intake compared to the control,Korean native steers [1]; days 42-48,about 1.02 kg
same,Average feed intake per head,Korean native steers [1]; entire experiment period (days 7-48),9.86 kg/day/head
same,"All CBC test indicators, effect of treatment with 0.1% NALT",Korean native steers [2],No statistically significant difference
same,Values of hematological indicators (CBC) relative to normal ranges,Korean native steers [2],within normal ranges
same,GRA (0-2.4),Korean native steers [2]; Day 0,3.16 10^3/μL
same,HCT (23-33),Korean native steers [2]; Day 0,6.95%
same,HGB (8.0-15.0),Korean native steers [2]; Day 0,13.4 g/dL
same,LYM (2.5-7.5),Korean native steers [2]; Day 0,6.08 10^3/μL
same,MCH (14-18),Korean native steers [2]; Day 0,14.8 pg
same,MCHC (30-36),Korean native steers [2]; Day 0,38.3 g/dL
same,MCV (40-60),Korean native steers [2]; Day 0,38.8 fL
same,MON (0-0.84),Korean native steers [2]; Day 0,0.22 10^3/μL
same,MPV (4.5-7.6),Korean native steers [2]; Day 0,6.95 fL
same,PCT (0.15-0.40),Korean native steers [2]; Day 0,0.24%
same,PDW (56-80),Korean native steers [2]; Day 0,34.1%
same,PLT (100-800),Korean native steers [2]; Day 0,332 10^3/μL
same,RBC (5.0-10.0),Korean native steers [2]; Day 0,9.13 10^6/μL
same,RDW (16-20),Korean native steers [2]; Day 0,23.6%
same,WBC (4.0-12.0),Korean native steers [2]; Day 0,9.60 10^3/μL
same,GRA (0-2.4),Korean native steers [2]; Day 35,3.61 10^3/μL
same,HCT (23-33),Korean native steers [2]; Day 35,6.58%
same,HGB (8.0-15.0),Korean native steers [2]; Day 35,11.7 g/dL
same,LYM (2.5-7.5),Korean native steers [2]; Day 35,5.67 10^3/μL
same,MCH (14-18),Korean native steers [2]; Day 35,14.7 pg
same,MCHC (30-36),Korean native steers [2]; Day 35,37.1 g/dL
same,MCV (40-60),Korean native steers [2]; Day 35,40.0 fL
same,MON (0-0.84),Korean native steers [2]; Day 35,0.46 10^3/μL
same,MPV (4.5-7.6),Korean native steers [2]; Day 35,6.58 fL
same,PCT (0.15-0.40),Korean native steers [2]; Day 35,0.24%
same,PDW (56-80),Korean native steers [2]; Day 35,31.5%
same,PLT (100-800),Korean native steers [2]; Day 35,371 10^3/μL
same,RBC (5.0-10.0),Korean native steers [2]; Day 35,8.04 10^6/μL
same,RDW (16-20),Korean native steers [2]; Day 35,22.7%
same,WBC (4.0-12.0),Korean native steers [2]; Day 35,9.74 10^3/μL
same,GRA (0-2.4),Korean native steers [2]; Day 70,3.66 10^3/μL
same,HCT (23-33),Korean native steers [2]; Day 70,9.80%
same,HGB (8.0-15.0),Korean native steers [2]; Day 70,13.8 g/dL
same,LYM (2.5-7.5),Korean native steers [2]; Day 70,4.91 10^3/μL
same,MCH (14-18),Korean native steers [2]; Day 70,15.7 pg
same,MCHC (30-36),Korean native steers [2]; Day 70,37.1 g/dL
same,MCV (40-60),Korean native steers [2]; Day 70,42.5 fL
same,MON (0-0.84),Korean native steers [2]; Day 70,0.81 10^3/μL
same,MPV (4.5-7.6),Korean native steers [2]; Day 70,9.80 fL
same,PCT (0.15-0.40),Korean native steers [2]; Day 70,0.24%
same,PDW (56-80),Korean native steers [2]; Day 70,29.5%
same,PLT (100-800),Korean native steers [2]; Day 70,196 10^3/μL
same,RBC (5.0-10.0),Korean native steers [2]; Day 70,8.83 10^6/μL
same,RDW (16-20),Korean native steers [2]; Day 70,23.6%
same,WBC (4.0-12.0),Korean native steers [2]; Day 70,9.38 10^3/μL
